According to US11040053B2, “Compositions and methods for activating “stimulator of interferon gene”13 dependent signalling” (CHINOOK THERAPEUTICS, INC., priority 2015, dated 2021):
“Also recorded” adds a separate entry of the source.

How the values were obtained:
[1] = target: T1, reference (REF) STING allele (Homo sapiens, UniProt Q86WV6); test: Cytokine transcript induction (qRT-PCR) in STING^REF/REF hPBMCs; format: cell-based; settings: for relative normalized IFNβ expression, in words: FIGS. 8A-B, 2 hours stimulation, 100 μM to 0.1 μM; for cytokine responses (IFNβ, TNFα, IL-6, IFNγ, IL-12p40 expression), in words: FIGS. 9B-13B, 2 hours and 6 hours stimulation
T1 construct: endogenous in cells
T1 sequence (Q86WV6 whole entry): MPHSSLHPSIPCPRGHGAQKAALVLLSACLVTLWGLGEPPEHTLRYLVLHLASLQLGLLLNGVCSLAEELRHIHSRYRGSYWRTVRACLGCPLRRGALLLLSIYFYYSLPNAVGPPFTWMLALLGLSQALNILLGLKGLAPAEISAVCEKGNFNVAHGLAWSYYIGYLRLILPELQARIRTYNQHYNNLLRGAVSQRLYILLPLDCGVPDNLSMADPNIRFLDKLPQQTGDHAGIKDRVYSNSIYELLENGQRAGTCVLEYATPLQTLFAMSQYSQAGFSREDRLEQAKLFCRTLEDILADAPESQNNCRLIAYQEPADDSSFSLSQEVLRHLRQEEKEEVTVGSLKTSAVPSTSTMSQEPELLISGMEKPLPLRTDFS
Protocol: The induction of type I interferon was measured in human primary blood mononuclear cells (hPBMCs) to evaluate the potency of mono- or di-F-CDN compounds as described herein. hPBMCs from two unique donors were used: one donor was homozygous for the wild type (WT) STING allele (STING^WT/WT) and the other donor was homozygous for the so-called reference (REF) STING allele (STING^REF/REF). The STING genotype of these donors was determined by PCR amplification and sequencing: genomic DNA was isolated from 10^4 hPBMCs using Quick Extract DNA Extraction Solution (Epicentre) and was used to amplify regions of exon 3, 6, and 7 of the human STING gene.
Cells were incubated at 37° C., 5% CO2 with concentrations ranging from 100 μM to 0.1 μM of each CDN. After 2 hours (FIGS. 7 and 8) or 2 hours and 6 hours (FIGS. 9-13) stimulation, cells were harvested by centrifugation and washed once with phosphate-buffered saline. Cellular RNA was isolated using the Aurum Total RNA 96 Kit and cDNA was synthesized using the iScript cDNA Synthesis Kit. Target and reference gene expression was assessed by real-time qRT-PCR using PrimePCR probe assays and the CFX96 gene cycler (all reagents and equipment from BioRad). Normalized IFNβ expression was expressed relative to untreated cells. Target genes included type I interferon (IFNβ), Th1-associated cytokines (IFNγ, IL-12p40) and NF-kB dependent inflammatory cytokines (TNFα, IL-6). Reference genes included GUSB alone (FIGS. 7 and 8) or GUSB and HSP90AB1 (FIGS. 9-13).

[2] = test system: B16.F10; test: B16.F10 melanoma mouse model, intra-tumoral injection; format: in vivo, C57BL/6 female mice; settings: FIG. 15A, IT 10 or 100 μg, three injections, vs HBSS
Protocol: To assess the ability of the fluorinated derivative compounds to promote anti-tumor immunity in diverse murine tumor models, tumor cells were implanted (in 100 μL PBS) subcutaneously on the lower back of 6-8 week old C57BL/6 female mice. Treatments began when tumors reached a volume of approximately 100 mm^3, on approximately day 14 post tumor implantation (see table below for tumor type, number of cells, and day of IT injection). The CDN compounds were administered by IT injection (10 or 100 μg in a total volume of 40 μL HBSS), and repeated every three days for a total of three injections. The compounds 3′3′-RR-(2′F-A)(2′F-A) and 3′3′-RR-(2′F-G)(2′F-A) and control mice given vehicle only (40 μL HBSS) were dosed. Tumors were measured twice weekly.

[3] = test system: HIVgag p55 protein; test: Immunization with HIVgag p55 protein plus CDN, splenocyte IFNγ ELISPOT; format: in vivo, BALB/c mice; settings: 1 μg or 5 μg CDN in AddaVax with 5 μg HIVgag p55 s.c., day 7 IFNγ ELISPOT, vs no CDN; for HIVgag p55 antigen specific CD4+ T-cell response, in words: FIG. 16A
Protocol: To determine whether the fluorinated derivatives could elicit HIVgag-specific CD4^+ and CD8^+ T cell responses, BALB/c mice (n=4) were immunized subcutaneously with 0 μg (no CDN), 1 μg or 5 μg of CDN formulated in 2% squalene-and-water (AddaVax, Invivogen) with 5 μg HIVgag p55 protein. Seven days following the vaccination, spleens were harvested from the mice and splenocytes prepared. 2×10^5 splenocytes were stimulated overnight in an IFNγELISPOT assay with media alone (unstimulated) or with 1 μM HIVgag p55 CD4^+ and CD8^+ specific peptides. IFNγ ELISPOTs were developed and quantified using a CTL plate reader and ImmunoSpot software. 3′3′-RR-(2′F-A)(2′F-A) and 3′3′-RR-(2′F-G)(2′F-A) were evaluated for their ability to induce HIVgag-specific immune responses.

[4] = target: T2, hSTING HAQ allele (Homo sapiens, UniProt Q86WV6, G230A/H232R/R293Q/R71H); test: IRF-3 inducible secreted luciferase reporter in THP1-Dual cells without digitonin; format: cell-based; settings: for activity relative to OH reference compound, in words: Table 5 comment, THP1 cells without digitonin
T2 construct: a human monocyte cell line containing the hSTING HAQ allele; host or cells: THP1-Dual cells
T2 sequence (Q86WV6 whole entry R71H/G230A/H232R/R293Q): as the sequence (Q86WV6 whole entry) above, with R71H, G230A, H232R, R293Q counted along it
Summary of the method: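 THP1-Dual cells were exposed for 30 min, washed, and cultured overnight at 37 °C in fresh RPMI/10% FBS. Secreted luciferase in the supernatant was read with QUANTI-Luc as the type I interferon signal. EC50 was taken from a 10-point serial-dilution dose-response curve.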

[5] = listed as 3′3′-RR-(2′F-A)(2′F-A)

SMILES	IFNβ transcript level compared to cells similarly dosed with 2′3′-(G)(A) [1]	relative normalized IFNβ expression, in words ([1]; listed as 3′3′-RR-(2′F-G)(2′F-A))	cytokine responses (IFNβ, TNFα, IL-6, IFNγ, IL-12p40 expression), in words [1]	tumor volume, in words [2]	HIVgag p55 antigen specific CD4+ T-cell response, in words [3]	HIVgag p55 antigen specific CD8+ T-cell response, in words ([3]; FIG. 16B)	activity relative to OH reference compound, in words [4]	relative normalized IFNβ expression, in words [1, 5]	tumor volume, in words [2, 5]	EC50 ([4]; without digitonin in THP1 cells (HAQ allele))
Nc1nc2c(ncn2[C@@H]2O[C@@H]3CO[P@@](=O)(S)O[C@H]4[C@@H](F)[C@H](n5cnc6c(N)ncnc65)O[C@@H]4CO[P@@](=O)(S)O[C@H]3[C@H]2F)c(=O)[nH]1 (stereo in doubt) [Compound 14, 2-Amino-9-((2R,3R,3aR,5R,7aR,9R,10R,10aR,12R,14aR)-9-(6-amino-9H-purin-9-yl)-3,10-difluoro-5,12-dimercapto-5,12-dioxidooctahydro-2H,7H-difuro [3,2-d:3′,2′-j][1,3,7,9]tetraoxa[2,8]diphosphacyclododecin-2-yl)-1,9-dihydro-6H-purin-6-one]	12- to 70 fold	stimulated dose-dependent production of IFNβ transcript; also recorded: more potent inducers of IFNβ transcript STING^REF/REF hPBMCs than 2′3′-(G)(A); also recorded: extremely potent stimulator of the REF STING allele	induced more robust dose-dependent responses of each of the cytokines tested	induced significant tumor inhibition as compared to HBSS	eliciting significant CD4+ T cell responses against HIVgag p55	elicited significant CD8^+ T cell responses against HIVgag p55	improved activity			
Nc1ncnc2c1ncn2[C@@H]1O[C@@H]2CO[P@@](=O)(S)O[C@H]3[C@@H](F)[C@H](n4cnc5c(N)ncnc54)O[C@@H]3CO[P@@](=O)(S)O[C@H]2[C@H]1F [Compound 6, (2R,3R,3aR,5R,7aR,9R,10R,10aR,12R,14aR)-2,9-bis(6-amino-9H-purin-9-yl)-3,10-difluoro-5,12-dimercaptooctahydro-2H,7H-difuro[3,2-d:3′,2′-j][1,3,7,9]tetraoxa[2,8]diphosphacyclododecine 5,12-dioxide]			induced more robust responses of all of the cytokines tested		eliciting significant CD4+ T cell responses against HIVgag p55		improved activity	stimulated dose-dependent production of IFNβ transcript; also recorded: more potent inducers of IFNβ transcript STING^REF/REF hPBMCs than 2′3′-(G)(A)	induced significant tumor inhibition as compared to HBSS; also recorded: complete tumor regression at the 100 μg dose	19 µM
